Results: patent US8106055B2, “Substituted amide compounds” (Gruenenthal GmbH, priority 2007, dated 2012)

Molecular target: T1, bradykinin 1 receptor (B1R) of the rat (Rattus norvegicus, UniProt P97583)
T1 construct: expressed in transfected cells; host or cells: CHO K1 cells
T1 sequence (P97583 1-337): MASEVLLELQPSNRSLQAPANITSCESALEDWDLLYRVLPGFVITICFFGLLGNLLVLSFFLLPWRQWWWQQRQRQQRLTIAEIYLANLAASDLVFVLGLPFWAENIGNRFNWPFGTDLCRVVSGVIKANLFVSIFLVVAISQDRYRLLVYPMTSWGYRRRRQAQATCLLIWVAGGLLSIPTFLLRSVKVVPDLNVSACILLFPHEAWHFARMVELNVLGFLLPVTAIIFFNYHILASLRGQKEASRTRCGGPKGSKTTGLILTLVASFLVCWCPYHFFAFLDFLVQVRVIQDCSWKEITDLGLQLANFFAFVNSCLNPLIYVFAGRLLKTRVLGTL
Assay: Functional investigation on the rat bradykinin 1 receptor (B1R), Ca2+ FLIPR assay in CHO K1 rB1R cells
Type: cell-based
Details: B1R antagonism rat; test substance 10 μM; Ca2+ FLIPR, CHO K1 rB1R cells
Procedure, shortened: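 Stably transfected CHO K1 cells loaded with Fluo-4; FLIPR Ca2+ fluorescence peak (ex 488/em 540 nm). Compound added first (agonism vs Lys-Des-Arg9-bradykinin ≥50 nM human, Des-Arg9-bradykinin 10 μM rat), then after 10-20 min agonist at EC80; antagonism as % inhibition, IC50 from concentration series, n=2-3, N≥2.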

| SMILES | B1R Ant. r [10 μM] % Inhibition [%] |
| --- | --- |
| COc1cc(C)c(S(=O)(=O)N(C)CCOCC(=O)NC2CCC(C(c3ccccc3)N(C)C)CC2)c(C)c1C (stereo not drawn) [Example 80, N-(4-((dimethylamino) (phenyl)methyl)cyclohexyl)-2-(2-(4-methoxy-N,2,3,6-tetramethylphenylsulfonamido)ethoxy)acetamide] | 6 |

Same assay, conditions: CHO-K1, B1R antagonism rat; test substance 10 μM; Ca2+ FLIPR, CHO K1 rB1R cells; read-out: B1R Ant. r [10 μM] % Inhibition

| SMILES | inhibition at 10 µM [%] |
| --- | --- |
| COc1cc(C)c(S(=O)(=O)N(C)CCOCC(=O)NCC2CCC(C(c3cccs3)N(C)C)CC2)c(C)c1 (stereo not drawn) [Example 69, N-((4-((dimethylamino)(thiophen-2-yl)methyl)cyclohexyl)methyl)-2-(2-(4-methoxy-N,2,6-trimethylphenylsulfonamido)ethoxy)acetamide] | 100 |
| CCN(CCOCC(=O)NC1CCC(C(c2cccs2)N(C)C)CC1)S(=O)(=O)c1c(C)cc(OC)c(C)c1C (stereo not drawn) [Example 59, N-(4-((dimethylamino)(thiophen-2-yl)methyl)cyclohexyl)-2-(2-(N-ethyl-4-methoxy-2,3,6-trimethylphenylsulfonamido)ethoxy)acetamide] | 70 |
| Cc1cc(C)c(S(=O)(=O)N2CCC(OCC(=O)NC3CCC(C(c4ccccc4)N(C)C)CC3)C2)c(C)c1 (stereo not drawn) [Example 64, N-(4-((dimethylamino)(phenyl)methyl)cyclohexyl)-2-(1-(mesitylsulfonyl)pyrrolidin-3-yloxy)acetamide] | 16 |
| Cc1ccc(S(=O)(=O)N(C)CCOCC(=O)NCCC2CCC(C(c3cccs3)N(C)C)CC2)cc1 (stereo not drawn) [Example 82, N-(2-(4-((dimethylamino)(thiophen-2-yl)methyl)cyclohexyl)ethyl)-2-(2-(N,4-dimethylphenylsulfonamido)ethoxy)acetamide] | -1 |
| CN(C)C(c1cccs1)C1CCC(CNC(=O)COC2CCN(S(=O)(=O)c3ccc(Cl)cc3)C2)CC1 (stereo not drawn) [Example 54, 2-(1-(4-chlorophenylsulfonyl)pyrrolidin-3-yloxy)-N-((4-((dimethylamino)(thiophen-2-yl)methyl)cyclohexyl)methyl)acetamide] | -20 |
| COc1ccc(S(=O)(=O)N2CCCCC2CCOCC(=O)NCC2CCC(C(c3cccs3)N(C)C)CC2)cc1 (stereo not drawn) [Example 90, N-((4-((dimethylamino)(thiophen-2-yl)methyl)cyclohexyl)methyl)-2-(2-(1-(4-methoxyphenylsulfonyl)piperidin-2-yl)ethoxy)acetamide] | 37 |
| COc1ccc(S(=O)(=O)N2Cc3ccccc3CC2COCC(=O)NC2CCC(C(c3cccs3)N(C)C)CC2)cc1 (stereo not drawn) [Example 47, N-(4-((dimethylamino)(thiophen-2-yl)methyl)cyclohexyl)-2-((2-(4-methoxyphenylsulfonyl)-1,2,3,4-tetrahydroisoquinolin-3-yl)methoxy)acetamide] | 36 |
| Cc1ccc(S(=O)(=O)N2CCC(OCC(=O)NCC3CCC(C(c4cccs4)N(C)C)CC3)C2)cc1 (stereo not drawn) [Example 68, N-((4-((dimethylamino)(thiophen-2-yl)methyl)cyclohexyl)methyl)-2-(1-tosylpyrrolidin-3-yloxy)acetamide] | 39 |
| COc1cc(C)c(S(=O)(=O)N2CCC(OCC(=O)NC3CCC(C(c4cccs4)N(C)C)CC3)C2)c(C)c1C (stereo not drawn) [Example 43, N-(4-((dimethylamino)(thiophen-2-yl)methyl)cyclohexyl)-2-(1-(4-methoxy-2,3,6-trimethylphenylsulfonyl)pyrrolidin-3-yloxy)acetamide] | 21 |
| COc1ccc(S(=O)(=O)N2CCCCC2CCOCC(=O)NC2CCC(C(c3cccc(F)c3)N(C)C)CC2)cc1 (stereo not drawn) [Example 62, N-(4-((dimethylamino)(3-fluorophenyl)methyl)cyclohexyl)-2-(2-(1-(4-methoxyphenylsulfonyl)piperidin-2-yl)ethoxy)acetamide] | 32 |
| CN(C)C(c1cccc(F)c1)C1CCC(CNC(=O)COCC2CCCCN2S(=O)(=O)c2ccc(Cl)c(Cl)c2)CC1 (stereo not drawn) [Example 87, 2-((1-(3,4-dichlorophenylsulfonyl)piperidin-2-yl)methoxy)-N-((4-((dimethylamino)(3-fluorophenyl)methyl)cyclohexyl)methyl)acetamide] | 9 |
| CN(C)C(c1cccs1)C1CCC(CCNC(=O)COCCN(C)S(=O)(=O)c2ccc(OC(F)(F)F)cc2)CC1 (stereo not drawn) [Example 65, N-(2-(4-((dimethylamino)(thiophen-2-yl)methyl)cyclohexyl)ethyl)-2-(2-(N-methyl-4-(trifluoromethoxy)phenylsulfonamido)ethoxy)acetamide] | 18 |
| CN(C)C(c1cccs1)C1CCC(CNC(=O)COCCN(C)S(=O)(=O)c2cccc(C(F)(F)F)c2)CC1 (stereo not drawn) [Example 92, N-((4-((dimethylamino)(thiophen-2-yl)methyl)cyclohexyl)methyl)-2-(2-(N-methyl-3-(trifluoromethyl)phenylsulfonamido)ethoxy)acetamide] | 1 |
| COc1ccc(S(=O)(=O)N2CCCCC2CCOCC(=O)NCCC2CCC(C(c3cccs3)N(C)C)CC2)cc1 (stereo not drawn) [Example 46, N-(2-(4-((dimethylamino)(thiophen-2-yl)methyl)cyclohexyl)ethyl)-2-(2-(1-(4-methoxyphenylsulfonyl)piperidin-2-yl)ethoxy)acetamide] | 77 |
| COc1cc(C)c(S(=O)(=O)N2CCC(OCC(=O)NCCC3CCC(C(c4cccs4)N(C)C)CC3)C2)c(C)c1C (stereo not drawn) [Example 74, N-(2-(4-((dimethylamino)(thiophen-2-yl)methyl)cyclohexyl)ethyl)-2-(1-(4-methoxy-2,3,6-trimethylphenylsulfonyl)pyrrolidin-3-yloxy)acetamide] | 27 |
| CN(C)C(c1ccccc1)C1CCC(CNC(=O)COC2CCCCC2N(C)S(=O)(=O)c2ccc(Cl)c(Cl)c2)CC1 (stereo not drawn) [Example 78, 2-(2-(3,4-dichloro-N-methylphenylsulfonamido)cyclohexyloxy)-N-((4-((dimethylamino)(phenyl)methyl)cyclohexyl)methyl)acetamide] | 2 |
| CN(C)C(c1ccccc1)C1CCC(NC(=O)COC2CCCCC2N(C)S(=O)(=O)c2ccc(Cl)c(Cl)c2)CC1 (stereo not drawn) [Example 39, 2-(2-(3,4-dichloro-N-methylphenylsulfonamido)cyclohexyloxy)-N-(4-((dimethylamino)(phenyl)methyl)cyclohexyl)acetamide] | -8 |
| CN(C)C(c1cccs1)C1CCC(CNC(=O)COCCN(C)S(=O)(=O)c2ccc(Cl)cc2)CC1 (stereo not drawn) [Example 55, 2-(2-(4-chloro-N-methylphenylsulfonamido)ethoxy)-N-((4-((dimethylamino)(thiophen-2-yl)methyl)cyclohexyl)methyl)acetamide] | 34 |
| Cc1ccc(S(=O)(=O)N(C)CCOCC(=O)NCC2CCC(C(c3cccs3)N(C)C)CC2)cc1 (stereo not drawn) [Example 4, N-((4-((dimethylamino)(thiophen-2-yl)methyl)cyclohexyl)methyl)-2-(2-(N,4-dimethylphenylsulfonamido)ethoxy)acetamide] | 18 |

Same assay, conditions: CHO-K1, read-out: B1R Ant. r [10 μM] % Inhibition

| SMILES | inhibition at 10 µM [%] |
| --- | --- |
| CN(C)C(c1ccccc1)C1CCC(CNC(=O)COC2CCN(S(=O)(=O)c3ccc(Cl)cc3Cl)C2)CC1 (stereo not drawn) [Example 67, 2-(1-(2,4-dichlorophenylsulfonyl)pyrrolidin-3-yloxy)-N-((4-((dimethylamino)(phenyl)methyl)cyclohexyl)methyl)acetamide] | 46 |
